Data published in patent US20220354911A1, “TREATMENT OF TUMORS BY A COMBINATION OF AN ONCOLYTIC ADENOVIRUS, A CDK4/6 INHIBITOR AND A FURTHER THERAPEUTICALLY ACTIVE AGENT” (KLINIKUM RECHTS DER ISAR DER TECHNISCHEN UNIVERSITÄT MÜNCHEN, priority 2019, published 2022).

What was measured:
[1] = tested on: RB, phospho-RB, E2F-1, Hexim1; assay: Western blot of cellular target proteins after JQ-1 and Palbociclib; format: cell-based, human
Experimental: (§1) 1-2×10^6 UMUC-3 or RT-112 cells were seeded in 10 cm plates in DMEM medium and 24 hours post seeding treated with respective small molecular inhibitors. 24 hours post treatment, lysates of total proteins were taken using an SDS-buffer. BCA Assay was applied to adjust equivalent protein concentrations. Then, protein samples were supplemented with Lämmli buffer and separated via SDS-PA gelelectrophoresis on 10% PA-Gels. Samples were blotted onto PVDF membranes using a BioRAD Wet Tank System. These membranes were blocked with TBS-Tween buffer containing 5% Skim milk powder for 1 hour at room temperature. Incubation with primary antibodies was conducted over night at 4° C. and with HRP-conjugated secondary antibodies for 1 hour at room temperature. Chemiluminescence was detected using ECL prime (Pierce) with the ChemiDoc Imaging System (BioRad). Figures were designed in Adobe® Illustrator and evaluation was performed with ImageLab.

LN229 cells = assay: Western blot of XVir-N-31 infected LN229 cells, LEE011 and JQ1; format: cell-based
Experimental: 2.5×10^5 LN229 cells were seeded in 10 cm plates in DMEM medium. The following day the cells were treated with 500 nM LEE011 and 200 nM JQ1 or a combination of both. At the next morning the cells were infected with XVir-N-31 at 20 MOI. One hour after infection DMEM Medium containing the inhibitors was added on the cells. After each time point (24, 48, 72 hours) the cells were put on ice, washed twice with ice-cold PBS and 300 μl of SDS Protein Lysis Buffer was added. The cells were transferred to reaction tubes and the DNA sheared with a syringe and a needle and the supernatant transferred for further use after centrifugation. The protein concentration was measured with a BCA assay and samples with 4× Lämmli:DTT 6:1 and a concertation of 20 μg were produced and transferred to a 10% SDS gel. The gel electrophoresis started at 90V and was increased to 150V after the ladder started to separate. The proteins on the gel were blotted to a membrane for 2 hours at 100V and blocked in 5% milk in TBS-T for 1 hour at RT. After washing in TBS-T, the first antibody was added according to the manufacturer's information over night at 4° C. The used antibodies were directed to GAPDH, E1A, DBP, E2F1, Rb, pRb for all time points, and caspase 3 and the full length and cleaved version of PARP additionally for the 72 hours samples. The next day, the washing was repeated and the secondary antibody added for 1 hour at RT. Following the washing, ECL was used to image the chemiluminescence by the ChemiDoc™ MP Imaging System.

[2] = tested on: E1A, E1B55k, DBP, E40rf6 and Hexon; assay: Western blot of viral protein expression kinetics in UMUC-3 cells with JQ-1; format: cell-based, Mastadenovirus, Type C, Serotype 5; settings: UMUC-3, 10 MOI
Experimental: as §1, with “1×10^6” for “1-2×10^6”, “UMUC-3” for “UMUC-3 or RT-112”, “infected” for “treated”, “10 MOI XVir-N-31. 1 hour” for “respective small molecular inhibitors. 24 hours”, “infection, culturing media was either refilled by DMEM or DMEM spiked with 500 nM JQ-1. 12, 24, 36 and 48 h.p.i,” for “treatment,”

XVir-N-31 = assay: Hexon Titer test, particle formation of XVir-N-31 in UMUC-3 cells; format: cell-based, Mastadenovirus, Type C, Serotype 5
Experimental: The production of viral particles was analyzed via immunohistochemistry-staining of hexon proteins (Hexon Titer test). Therefor, 2×10^5 adherent HEK293 cells per well were seeded in 24-well plates. Cell cultures samples collected after indicated time-points post infection and indicated co-treatment with JQ-1 were pretreated with three cycles thaw-freeze to release viral particles from cells and then serially diluted. The HEK293 cells were infected in volumes of either 50 μl or 10 μl per sample. The plates were then incubated for 40 h at 37° C. and 10% CO2 before checking for detectable cytopathic effects. The medium was aspirated, and the plates were dried for 5-10 min before fixing the cells by adding ice-cold methanol for 10 min at −20° C. The wells were washed twice with PBS+1% BSA. The primary antibody (goat anti-hexon, 1:500) was added and the plates were incubated for 1 h at 37° C. before washing it twice with PBS+1% BSA. Next, the secondary antibody (Rabbit Anti-Goat HRP conjugate, 1:1000) was added and incubated for 1 h at 37° C. Again, the wells were washed twice with PBS containing 1% BSA before the DAB solution was added. After 30 min incubation, 10 different random fields of view (f.o.v.) per well were counted under the 20× objective of a microscope. Counting iterations were averaged and according to this formula, infectious particles per ml were calculated: […]

UMUC-3 and RT112 = assay: FACS cell cycle analysis, JQ-1 and Palbociclib; format: cell-based, human; settings: 100 or 300 nM JQ-1, 500 nM Palbociclib
Experimental: For such purpose, 5×10^4 cells UMUC-3 and RT112, respectively, were seeded in 6-well plates and 24 hours later treated with appropriate inhibitors. 1 day later, at approximately 80% confluency, cells were washed with PBS, trypsinized, washed again and fixated with icecold 80% ethanol. For cell cycle analysis, samples were incubated with the DNA-intercalating dye 7-aminoactinomycine D (7-AAD) and measured via FACS analysis. Evaluation of measured data was performed via the software FlowJo.

[3] = LN229, with XVir-N-31, 48 hours post infection
[4] = LN229, with XVir-N-31, 72 hours post infection

SMILES: Cc1sc2c(c1C)C(c1ccc(Cl)cc1)=N[C@@H](CC(=O)OC(C)(C)C)c1nnc(C)n1-2 [JQ-1, thieno-triazolo-1-4-diazepine]
- RB, phospho-RB or E2F-1 protein level ([1]; UMUC-3 and RT-112, 0.2 μM and 0.5 μM, 24 hours post treatment, monotherapy or with Palbociclib): did not show any effects
- Hexim1 ([1]; UMUC-3 and RT-112, 24 hours post treatment): downregulated
- viral proteins E1A and DBP (LN229 cells; LN229, XVir-N-31 MOI 20, 500 nM LEE011 or/and 200 nM JQ-1, 24 hours post infection): increased
- viral proteins E1A and DBP (LN229 cells; LN229, XVir-N-31 MOI 20, 500 nM LEE011 or/and 200 nM JQ-1, 48 hours post infection): increased
- viral proteins E1A and DBP (LN229 cells; LN229, XVir-N-31 MOI 20, 500 nM LEE011 or/and 200 nM JQ-1, 72 hours post infection): increased
- cellular proteins Rb and pRb (LN229 cells; LN229, with XVir-N-31, 24 hours post infection): remained inhibited
- E2F-1 (LN229 cells; [3]): stabilized
- cellular proteins Rb and pRb (LN229 cells; [3]): remained inhibited
- E2F1 (LN229 cells; [4]): enhanced
- cellular protein Rb (LN229 cells; [4]): decreased
- presence of cleaved PARP (LN229 cells; XVir-N-31 infected LN229 cells, 72 hours post infection): increased
- Hexon expression ([2]; 500 nM JQ-1): expressed in high levels in early time-points
- absolute viral protein expression and kinetic of XVir-N-31 viral proteins (E1A, E1B55k, DBP and E40rf6) ([2]; 500 nM JQ-1 concurrent, 12, 24, 36 and 48 h.p.i): highly accelerated
- particle formation of XVir-N-31 (XVir-N-31; 500 nM JQ-1, 39, 49, 62 or 72 hpi): significantly increased
- kinetic of XVir-N-31's particle formation (XVir-N-31; concurrent treatment with 500 nM JQ-1): highly accelerated
- cell cycle (UMUC-3 and RT112): no significant influence on the cell cycle
